Results from paper PMC5326599 (Antiviral research, 2017).
Where “and” joins values, the source holds several entries; their conditions need not be identical. Identical values can stand only once. Marks after values point to notes of the source that are not given here.

Assays:
[1] = system: A/Udorn/72 (H3N2) virus (M2-WT); test: microbe, parasite or virus in culture; format: cell-based; details: Influenza A virus, H3N2, MDCK, read-out: Antiviral Efficacy EC50, A/Udorn/72 (H3N2) M2-WT
[2] = system: influenza A/Solomon Islands/3/2006 (H1N1) virus; parameters: species or system BALB/c mice; details: mouse, in vivo
[3] = system: MDCK cells; details: read-out: Cytotoxicity CC50, neutral red, 24 h
[4] = mouse, in vivo

NC12CC3CC(CC(C3)C1)C2 [Amantadine (1), amantadine]
MDD ± SD (mean day of death) [2]: 13.0 ± 6.4 days and 9.4 ± 1.9 days
Survivors/Total [2]: 10/10^*** and 6/10^***
survival rate / protection [2]: 100%

NC1CCC2(CC1)C1CC3CC(C1)CC2C3 (stereo not drawn) [Compound 3, spiroadamantane amine]
Survivors/Total [2]: 7/10^*** and 1/10 and 0/10
survival rate / protection [2]: 70%
CC50 [3]: 27.6 ± 0.5 µM
body weight difference compared to placebos and normal control animals [4]: 3%
tolerability [4]: well tolerated
